According to patent publication US20140005119A1, “COMPOSITIONS AND METHODS FOR INHIBITING THE ACTIVITY OF P110a MUTANT PROTEINS” (Case Western Reserve University, priority 2012, published 2014):
Bridges are numbered along the chain shown (N, C = ends). Where no end group is shown, it is not given here. [ ]: non-standard residue; d: D form. S5 = C=CCCC[C@](C)(N)C(=O)O

How the values were obtained:
[1] = tested on: HCT116 xenograft tumor (p110α H1047R); test: Peptide treatment of HCT116 xenograft tumors in athymic nude mice; type: in vivo; details: intratumoral 250 μg daily for 14 days
[2] = tested on: DLD1 xenograft tumor (p110α E545K); test: Peptide treatment of DLD1 xenograft tumors in athymic nude mice; type: in vivo; details: intratumoral 250 μg daily for 14 days, versus water control
Protocol: FIGS. 5(A-D) illustrate: (A) An athymic nude mouse with a xenograft Tumor growth of cancer cells harboring the p110α E545K Mutation (A and B) and treated with Stapled p110α E545K Mutant Peptide. Five million DLD1 cells were injected subcutaneously and bilaterally into athymic nude mice. Once the xenograft tumors reach 100-150 mm^3, the left side tumors were injected with the stapled WT peptide and the right side tumors were injected with the stapled mutant peptide daily for 14 days. Ten tumors of similar size in five other athymic nude mice were injected with an equal amount of water as controls. Tumor sizes were measured every 2 days. Representative pictures of mice injected with the peptides are shown in (A) and quantitative measurements are shown in (B). Arrows indicate tumors treated with the stapled WT peptide and the red arrows indicate tumors treated with the stapled mutant peptide. The p value was calculated using ANOVA analysis. […] All quantitative measurements are plotted as mean±SEM.
Animal experiments were approved by the Case Western Reserve University Animal Care and Use Committee. […] Tumor volume was measured with electronic calipers, and volumes were calculated as length 3 width^2/2.
Five-week-old male athymic nude mice were injected with 5 million cells subcutaneously and bilaterally. […] The tumor sizes were measured every 2 days.

[3] = tested on: AKT and Foxo1 phosphorylation; test: Immunoblot of AKT signaling in peptide-treated xenograft tumors; type: in vivo, mice
Protocol: FIG. 6 is an immunoblot illustrating the stapled mutant peptide inhibits AKT signaling in xenograft tumors.
Five-week-old male athymic nude mice were injected with 5 million cells subcutaneously and bilaterally. When tumor sizes reached 100-150 mm^3, 10 mice with similar sized tumors on both flanks were selected. The left flank tumors were injected with stapled WT p110α peptide, whereas the right flank tumors were injected with stapled p110α E545K mutant peptide. Each tumor was injected with 250 μg of peptide daily for 14 days. Control xenograft tumors were injected with an equal volume of water. The tumor sizes were measured every 2 days.

p110α-p85 interaction = biological target: T1, p110α-p85 interaction (Homo sapiens, UniProt P42336, E545K); test: Peptide competition assay in cell lysates, p110α-p85 interaction; type: binding
T1 construct: tag the endogenous WT or mutant p110α with 3×FLAG at their C termini in DLD1 cells; endogenous in cells; host or cells: DLD1 p110α E545K 3×FLAG knock-in cells
Protocol: FIGS. 3(A-M) illustrate: (A, B) Mapping peptides (P3, SEQ ID NO: 1; P4 SEQ ID NO: 2; P5, SEQ ID NO: 3; P6, SEQ ID NO: 4) derived from mutant p110α that inhibit interaction between IRS1 and p110α E545K. The indicated peptides were added into cell lysates made from the p110α E545K 3×FLAG KI cells. Cell lysates were immunoprecipitated with beads conjugated with anti-FLAG antibodies and then blotted with anti-IRS1 antibodies. (C) Immunoblots of cell lysates made from the p110α E545K 3×FLAG KI cells. Cell lysates were immunoprecipitated with beads conjugated with anti-FLAG antibodies and then blotted with the indicated antibodies. […] (J, K) Immunoblot and graph of purified recombinant p110α E545K mutant proteins mixed with the indicated components and quantified using an in vitro lipid kinase assay. […]
For Co-immunoprecipitation (Co-IP), cells were harvested, washed with PBS, and then lysed in IP buffer (50 mMTris [pH 7.4], 150 mMNaCl, 5 mMEDTA [pH 8.0], 0.5% NP40, 1 mM PMSF, complete Protease Inhibitor Cocktail tablet [Roche]; supplemented with phosphatase inhibitors [1 mM Na3VO4, 20 mM NaF, 0.1 mM b-glycerophosphate, 20 mM sodium pyrophosphate] when necessary). […] Lysates were then cleared by centrifugation (14,000 rpm, 10 min) and protein concentration in supernatants was determined with a BCA protein assay kit (Pierce, Rockford, Ill.). […]

[4] = peptide-treated xenograft tumors

T1 sequence (P42336 whole entry E545K): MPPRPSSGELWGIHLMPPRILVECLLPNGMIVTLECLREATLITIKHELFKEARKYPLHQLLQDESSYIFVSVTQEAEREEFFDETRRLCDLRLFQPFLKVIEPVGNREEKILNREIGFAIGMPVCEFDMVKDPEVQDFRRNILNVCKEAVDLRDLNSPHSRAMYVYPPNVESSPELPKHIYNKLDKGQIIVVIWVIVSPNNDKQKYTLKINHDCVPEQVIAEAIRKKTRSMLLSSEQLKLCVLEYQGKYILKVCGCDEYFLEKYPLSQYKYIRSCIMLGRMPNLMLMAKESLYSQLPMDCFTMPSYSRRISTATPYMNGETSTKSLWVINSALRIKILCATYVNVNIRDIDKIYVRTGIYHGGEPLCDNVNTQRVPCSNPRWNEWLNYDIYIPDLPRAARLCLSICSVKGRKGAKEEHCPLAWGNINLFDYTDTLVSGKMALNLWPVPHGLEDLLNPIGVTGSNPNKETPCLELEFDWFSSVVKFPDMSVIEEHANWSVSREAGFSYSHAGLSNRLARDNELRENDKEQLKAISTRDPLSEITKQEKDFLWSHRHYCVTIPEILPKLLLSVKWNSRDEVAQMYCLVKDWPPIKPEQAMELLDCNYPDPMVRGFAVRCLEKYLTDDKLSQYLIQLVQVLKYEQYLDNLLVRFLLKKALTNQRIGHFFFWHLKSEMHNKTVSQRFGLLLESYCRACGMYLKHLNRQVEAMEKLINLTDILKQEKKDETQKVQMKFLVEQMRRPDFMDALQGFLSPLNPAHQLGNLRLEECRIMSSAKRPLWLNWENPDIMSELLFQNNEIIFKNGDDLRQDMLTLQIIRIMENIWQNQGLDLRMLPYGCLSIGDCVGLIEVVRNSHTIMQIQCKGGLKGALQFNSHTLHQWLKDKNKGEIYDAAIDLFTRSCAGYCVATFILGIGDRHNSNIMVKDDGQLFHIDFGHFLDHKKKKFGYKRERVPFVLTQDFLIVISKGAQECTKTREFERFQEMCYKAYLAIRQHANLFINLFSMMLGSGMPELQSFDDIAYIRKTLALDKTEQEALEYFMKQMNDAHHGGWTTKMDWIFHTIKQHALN
T1 sequence (P27986 whole entry partner): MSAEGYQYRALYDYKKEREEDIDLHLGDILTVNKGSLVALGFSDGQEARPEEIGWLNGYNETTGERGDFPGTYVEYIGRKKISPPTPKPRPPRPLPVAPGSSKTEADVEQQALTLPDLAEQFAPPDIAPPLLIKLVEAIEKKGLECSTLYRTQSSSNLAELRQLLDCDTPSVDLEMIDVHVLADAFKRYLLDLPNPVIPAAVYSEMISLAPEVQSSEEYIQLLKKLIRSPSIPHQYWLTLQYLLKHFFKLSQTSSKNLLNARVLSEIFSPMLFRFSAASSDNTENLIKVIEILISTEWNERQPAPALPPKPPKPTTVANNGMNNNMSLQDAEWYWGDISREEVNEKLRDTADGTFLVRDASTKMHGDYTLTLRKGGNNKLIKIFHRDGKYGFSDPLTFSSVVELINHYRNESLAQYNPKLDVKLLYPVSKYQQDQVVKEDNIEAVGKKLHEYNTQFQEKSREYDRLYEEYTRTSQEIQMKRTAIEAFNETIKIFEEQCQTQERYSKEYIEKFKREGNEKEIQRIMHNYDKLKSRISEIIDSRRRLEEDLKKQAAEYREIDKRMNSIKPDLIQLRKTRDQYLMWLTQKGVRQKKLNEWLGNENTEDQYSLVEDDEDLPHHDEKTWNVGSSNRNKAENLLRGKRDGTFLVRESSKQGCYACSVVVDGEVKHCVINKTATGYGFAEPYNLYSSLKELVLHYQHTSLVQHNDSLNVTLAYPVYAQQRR

effect on p110α-p85 interaction (p110α-p85 interaction)	Substance	xenograft tumor growth of HCT116 CRC cells [1]	DLD1 xenograft tumor growth [2]	AKT signaling in xenograft tumors ([3]; FIG. 6 legend)	AKT and Foxo1 phosphorylation in xenograft tumors [3, 4]	AKT phosphorylation at T308 and S473 residues in xenograft tumors [3, 4]
–	H2N-SEITEQEKD^549-FLW-S^553-HRHYC-COOH (SEITEQEK[S5]FLW[S5]HRHYC; staple 9-13; not fully specified (N-terminus, C-terminus); printed as H2N-SEITEQEKD549-FLW-S553-HRHYC-COOH; listed as Homo sapiens) [stapled WT peptide, stapled wild-type p110α counterpart of the stapled mutant peptide, used as control, reference compound]	neither the stapled WT nor the stapled mutant peptide inhibited	did not inhibit	–	–	–
no effects	H2N-SEITKQEK-D^549-FLW-S^553-HRHYC-COOH [stapled mutant peptide]	neither the stapled WT nor the stapled mutant peptide inhibited	significantly slowed	inhibits	reduced	only decreased AKT phosphorylation at the S473 residue
